Measured values published in PMC9144027, “Evaluation of a Thermophilic, Psychrostable, and Heavy Metal-Resistant Red Sea Brine Pool Esterase” (Marine Drugs, 2022).

Test system: T1, EstATII-TM (EstATII, A126V)
T1 construct: full ORF (945 bp) in pET-SUMO, His-tagged SUMO fusion, E. coli BL21(DE3), Ni column; 55 kDa; tag cleavage not mentioned; KC958722 is the wild-type nucleotide record; tested form carries A126V
Test: p-nitrophenol release at […] nm, nonlinear Michaelis-Menten fit
Format: biochemical, uncultured bacterium
Details: 30 °C, pH 7.5; substrate range 0.01-1 mM; no added metal; Table 1 prints 0.03 (±0.01) μmol; unit doubtful (substrate range suggests mM)

## CCCC(=O)Oc1ccc([N+](=O)[O-])cc1 [p-nitrophenyl butyrate]
  Km: 0.0303 mM
